For two compounds, MIC and melting point results are on record in US6545051B1, “Antibacterial hydroxamic acid derivatives” (British Biotech Pharmaceuticals, Ltd., priority 1999, dated 2003).

≈ marks a conversion by molar mass, not a printed value.

The subject of data set [1] is Staphylococcus capitis (American Type Culture Collection number 35661). The experiment in a line: Minimal inhibitory concentration (MIC) against Staphylococcus capitis. Particulars: 2×YT broth, 37° C., 18 hours, lowest drug concentration that inhibited visible growth. In kind it is cell-based. On the procedure:
Minimal inhibitory concentrations (MIC) of inhibitors against E. coli strain DH5α (Genotype; F-φ80dlacZΔM 15Δ(lacZYA-argF)U 169 deoR recA1 endA1 hsdR17(rk^−, mk^+)phoA supE44λ^−thi-1 gyrA96 relA1) obtained from GibcoBRL Life Technologies, or Staphylococcus capitis (American Type Culture Collection number 35661) were determined as follows. Stock solutions of each test compound were prepared by dissolution of the compound in dimethylsulfoxide at 10 mM. For the determination of the minimal inhibitory concentration, two fold serial dilutions were prepared in 2×YT broth (typtone 16 g/1, yeast extract 10 g/1, sodium chloride 5 g/1 obtained from BIO 101 Inc, 1070 Joshua Way, Vista, Calif. 92083, USA) to yield 0.05 ml compound-containing medium per well. Inocula were prepared from cultures grown overnight in 2×YT broth at 37° C. Cell densities were adjusted to absorbance at 660 nm (A660)=0.1; the optical density-standardized preparations were diluted 1:1000 in 2×YT broth; and each well inoculated with 0.05 ml of the diluted bacteria. Microtiter plates were incubated at 37° C. for 18 hours in a humidified incubator. The MIC (μM) was recorded as the lowest drug concentration that inhibited visible growth.

For `CCCCCC[C@H](CC(=O)NO)C(=O)N[C@@H](Cc1ccccc1)C(=O)OC(C)C`, the MIC in data set [1] was 100 µM (≈ 40.7 µg/mL).
`CCOC(=O)[C@@H](NC(=O)[C@H](CC(C)C)[C@H](C)C(=O)NO)C(C)(C)C` [Example 2] came in with a melting point of 198 to 203 °C.
